Test results: ChEMBL document CHEMBL3045674, “Synthesis of N-[3-(acetylthio)alkanoyl] and N-[3-mercaptoalkanoyl]-4-(s)-(phenylmethyl) pyroglutamic acids and prolines as potent ACE inhibitors” (2009)
The source made the active and inactive calls. The rule behind the calls is not given here.

What was measured:
Rattus norvegicus [1] = assay: Antihypertensive activity in Rattus norvegicus Sprague-Dawley (rat) assessed as inhibition of angiotensin-1-induced increase in blood pressure at 10 ug/kg, iv administered 5 min before angiotensin-1 challenge; type: functional
Rattus norvegicus [2] = assay: Antihypertensive activity in Rattus norvegicus Sprague-Dawley (rat) assessed as inhibition of angiotensin-1-induced increase in blood pressure at 30 ug/kg, iv administered 5 min before angiotensin-1 challenge; type: functional

With `CC(=O)SC[C@@H](C)C(=O)N1C(=O)[C@@H](Cc2ccccc2)C[C@H]1C(=O)O` the inhibition (Rattus norvegicus [1]) was “inactive” and the inhibition in vivo at 0.03 mg/kg (Rattus norvegicus [2]) was 60%.
`CC(=O)SCCC(=O)N1C(=O)[C@@H](Cc2ccccc2)C[C@H]1C(=O)O` was tested, and the inhibition in vivo at 0.01 mg/kg (Rattus norvegicus [1]) was 13% and the inhibition in vivo at 0.03 mg/kg (Rattus norvegicus [2]) was 20%.
Work on `C[C@H](CS)C(=O)N1CCC[C@H]1C(=O)O` [CAPTOPRIL] yielded an inhibition in vivo at 0.01 mg/kg (Rattus norvegicus [1]) of 60%.
For `CC(=O)SC[C@@H](C)C(=O)N1C[C@@H](Cc2ccccc2)C[C@H]1C(=O)O`, the inhibition in vivo at 0.01 mg/kg (Rattus norvegicus [1]) was 22%.
